# Bridge positions count the residues as written; N and C are the ends. Square brackets hold non-standard residues; d marks the D form. Peptide text beside a SMILES is read from it. I, II: the chains in the order shown. βAla = NCCC(=O)O
# Tests used:
# [1] = tested on: S. aureus ATCC 25923 biofilm; format: cell-based, Staphylococcus aureus; settings: ATCC 25923, 2 h
# Method: Biofilm formation was performed by adapting the procedure described in [39] using the Calgary Biofilm Device (Innovotech, Innovotech Inc. Edmonton, Canada). Briefly, 96-well plates containing the bacterial inoculum were sealed with lids bearing 96 pegs on which the biofilm could build up. The plates were placed in an orbital incubator at 35°C (for P. aeruginosa and E. coli) or 37°C (for S. aureus) for 20 h under agitation at 125 rpm. Once biofilms formed, the lids were removed from the plates and the pegs were rinsed twice with phosphate buffered saline (PBS) to remove planktonic cells. The peg-lid was then transferred to a 96-well challenge microtiter plate, each well containing 200 µl of a twofold serial dilution of each peptide in LB medium. The challenge plate was incubated at 37°C for 2 hours. Peptide activity on pre-formed biofilm was evaluated by two independent methods: (i) visual observation of bacterial growth and (ii) counting of living bacterial cells after peptide treatment. In the first case, the peg-lid was removed from the challenge plate, rinsed with PBS and used to cover a 96-well recovery microtiter plate, each well containing 200 µl LB medium. […] Colony forming units (CFU) were expressed as percentage with respect to control (peptide-untreated biofilms). […]
# [2] = tested on: E. coli ATCC 25922 biofilm; format: cell-based, Escherichia coli; settings: ATCC 25922, 20 h
# Method: Biofilm formation was performed by adapting the procedure described in [39] using the Calgary Biofilm Device (Innovotech, Innovotech Inc. Edmonton, Canada). Briefly, 96-well plates containing the bacterial inoculum were sealed with lids bearing 96 pegs on which the biofilm could build up. The plates were placed in an orbital incubator at 35°C (for P. aeruginosa and E. coli) or 37°C (for S. aureus) for 20 h under agitation at 125 rpm. Once biofilms formed, the lids were removed from the plates and the pegs were rinsed twice with phosphate buffered saline (PBS) to remove planktonic cells. The peg-lid was then transferred to a 96-well challenge microtiter plate, each well containing 200 µl of a twofold serial dilution of each peptide in LB medium. The challenge plate was incubated at 37°C for 2 hours. Peptide activity on pre-formed biofilm was evaluated by two independent methods: (i) visual observation of bacterial growth and (ii) counting of living bacterial cells after peptide treatment. In the first case, the peg-lid was removed from the challenge plate, rinsed with PBS and used to cover a 96-well recovery microtiter plate, each well containing 200 µl LB medium. The recovery plate was sealed, incubated at 37°C for 4 hours and then observed for any visible growth of bacteria detached from the peptide-treated biofilm. […]
# [3] = tested on: S.aureus USA 300; format: cell-based, Staphylococcus aureus
# Method: (§1) MICs were determined using a standard microdilution assay as recommended by the Clinical and Laboratory Standards Institute. Assays were performed in triplicate using cation-supplemented Mueller-Hinton (MH) broth (Becton Dickinson, Franklin Lakes, NJ, USA) and a bacterial inoculum of 5x10^4 CFU/well, in a final volume of 100 µl. The tested concentrations ranged from 0.1 µM to 24 µM for both peptides. Results were recorded after 18–20 h of incubation at 37°C.
# [4] = tested on: S.aureus 3851; format: cell-based, Staphylococcus aureus
# Method: as §1
# [5] = tested on: S. aureus USA300; experiment: In vivo anti-MRSA activity, lethal i.p. infection of mice; settings: Balb-c mice (20 g), groups of 5, i.p. LD100 (1×10^6) S. aureus USA 300 in 7% mucin, single i.p. peptide 25 mg/kg 30 min later; for survival: after 7 days
# Method: The smallest number of bacteria causing 100% lethal infection (LD100) after intra-peritoneal (i.p.) injection was 1×10^6 in the presence of 7% mucin. An LD100 killed mice within 20 hours. Mice were infected with the LD100 of bacteria and treated i.p. with the peptides 30 minutes later.
# Figure 4 In vivo antibacterial activity of tetrabranched M33-L and M33-D peptides. Balb-c mice (20 g) were injected i.p. with a lethal amount of S. aureus USA300 cells. Dashed line (Ctr), injection with bacteria and no peptides; dotted line, injection with bacteria and a single injection of M33-L peptide (25 mg/kg) 30 min later; continuous line, injection with bacteria and a single injection of M33-D peptide (25 mg/kg) 30 min later.
# Animal procedures were approved by the Ethical Committee of the Azienda Ospedaliera Universitaria Senese on November 18, 2010. Balb-c mice (20 g) were infected i.p. with lethal amounts of bacteria (see results) mixed in 500 µl PBS +7% mucin (mucin from porcine stomach, type II, Sigma-Aldrich). Bacteria were cultured overnight, centrifuged, mixed in sterile PBS, and measured by spectrophotometer. Possible further dilutions in PBS were sometimes necessary to obtain the right amount of bacteria. Groups consisted of 5 animals. Moribund animals were killed humanely to avoid unnecessary distress. Surviving mice were monitored for 7 days. Thirty minutes after bacterial administration, peptides were inoculated i.p. with 0.5 ml PBS solution containing the indicated amount of peptide (see Results). Control animals received only PBS. P values were calculated using GraphPad Prism software.
# [6] = target: T1, Staphylococcus aureus aureolysin (Staphylococcus aureus, UniProt P81177); format: in vitro ADME; settings: 1 mM CaCl2 pH 7.8, 37°C; for time of stability / degradation on incubation with aureolysin: 300 µg peptide + 3 µg S. aureus aureolysin in 300 µl 20 mM Tris-HCl, HPLC and MALDI MS read-out
# T1 construct: purchased BioCol GmbH
# Method: Tetrabranched M33-L or M33-D peptides (300 µg) were incubated at 37°C with Staphylococcus aureus aureolysin (3 µg, BioCol GmbH) or Pseudomonas aeruginosa elastase (3 µg, Calbiochem) in 300 µl 20 mM Tris-HCl, 1 mM CaCl2 pH 7.8. At indicated time intervals, 50 µl aliquots were removed, diluted with 950 µl of 0.1% trifluoroacetic acid (TFA)/water and analyzed by HPLC and mass spectrometry. Liquid chromatography was performed on Phenomenex Jupiter C18 analytical column (300 Å, 5 µm, 250×4.6 mm) in a 30 min gradient, using TFA 0.1%/water as solvent A and methanol as solvent B. Mass spectrometry analysis was performed on withdrawn samples and repeated on HPLC-eluted peaks with a Bruker Daltonic ultraflex MALDI TOF/TOF mass spectrometer.
# T1 sequence (P81177 209-509): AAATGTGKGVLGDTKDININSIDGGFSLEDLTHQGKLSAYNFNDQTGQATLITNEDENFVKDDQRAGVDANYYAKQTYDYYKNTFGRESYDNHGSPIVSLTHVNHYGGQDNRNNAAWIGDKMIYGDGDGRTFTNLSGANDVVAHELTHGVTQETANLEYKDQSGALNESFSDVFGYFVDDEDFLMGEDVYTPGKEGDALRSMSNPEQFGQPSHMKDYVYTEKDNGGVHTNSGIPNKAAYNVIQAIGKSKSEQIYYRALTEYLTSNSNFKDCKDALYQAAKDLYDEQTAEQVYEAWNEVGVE
Structure (SMILES),Minimum bactericidal concentration on biofilm (MBCb) [1],Minimum biofilm eradication concentration (MBEC) [2],MIC [3],MIC [4],mortality (in words) [5],survival [5],time of stability / degradation on incubation with aureolysin [6],"stability to aureolysin (in words) ([6]; 300 µg peptide + 3 µg S. aureus aureolysin, 20 mM Tris-HCl, HPLC and MS)"
"CC[C@H](C)[C@H](NC(=O)[C@H](CCCCN)NC(=O)[C@@H](N)CCCCN)C(=O)N[C@@H](CCCNC(=N)N)C(=O)N[C@H](C(=O)N[C@@H](CCCNC(=N)N)C(=O)N[C@@H](CC(C)C)C(=O)N[C@@H](CO)C(=O)N[C@@H](C)C(=O)NCCCC[C@H](NC(=O)[C@H](C)NC(=O)[C@H](CO)NC(=O)[C@H](CC(C)C)NC(=O)[C@H](CCCNC(=N)N)NC(=O)[C@@H](NC(=O)[C@H](CCCNC(=N)N)NC(=O)[C@@H](NC(=O)[C@H](CCCCN)NC(=O)[C@@H](N)CCCCN)[C@@H](C)CC)C(C)C)C(=O)NCCCC[C@H](NC(=O)[C@H](CCCCNC(=O)[C@H](C)NC(=O)[C@H](CO)NC(=O)[C@H](CC(C)C)NC(=O)[C@H](CCCNC(=N)N)NC(=O)[C@@H](NC(=O)[C@H](CCCNC(=N)N)NC(=O)[C@@H](NC(=O)[C@H](CCCCN)NC(=O)[C@@H](N)CCCCN)[C@@H](C)CC)C(C)C)NC(=O)[C@H](C)NC(=O)[C@H](CO)NC(=O)[C@H](CC(C)C)NC(=O)[C@H](CCCNC(=N)N)NC(=O)[C@@H](NC(=O)[C@H](CCCNC(=N)N)NC(=O)[C@@H](NC(=O)[C@H](CCCCN)NC(=O)[C@@H](N)CCCCN)[C@@H](C)CC)C(C)C)C(=O)NCCC(=O)O)C(C)C [M33-L] (I: H-KKIRVRLSAKK[βAla]-OH / II: H-KKIRVRLSAK / III: H-KKIRVRLSA / IV: H-KKIRVRLSA; amide I:10-IV:C, I:11-II:C, II:10-III:C; N-terminus assumed)",12 µM,3 µM,6 µM,12 µM,mortality overlapping that of controls,0%,≤ 1 h,not at all stable
"CC[C@@H](C)[C@@H](NC(=O)[C@@H](CCCCN)NC(=O)[C@H](N)CCCCN)C(=O)N[C@H](CCCNC(=N)N)C(=O)N[C@@H](C(=O)N[C@H](CCCNC(=N)N)C(=O)N[C@H](CC(C)C)C(=O)N[C@H](CO)C(=O)N[C@H](C)C(=O)NCCCC[C@H](NC(=O)[C@@H](C)NC(=O)[C@@H](CO)NC(=O)[C@@H](CC(C)C)NC(=O)[C@@H](CCCNC(=N)N)NC(=O)[C@H](NC(=O)[C@@H](CCCNC(=N)N)NC(=O)[C@H](NC(=O)[C@@H](CCCCN)NC(=O)[C@H](N)CCCCN)[C@H](C)CC)C(C)C)C(=O)NCCCC[C@H](NC(=O)[C@H](CCCCNC(=O)[C@@H](C)NC(=O)[C@@H](CO)NC(=O)[C@@H](CC(C)C)NC(=O)[C@@H](CCCNC(=N)N)NC(=O)[C@H](NC(=O)[C@@H](CCCNC(=N)N)NC(=O)[C@H](NC(=O)[C@@H](CCCCN)NC(=O)[C@H](N)CCCCN)[C@H](C)CC)C(C)C)NC(=O)[C@@H](C)NC(=O)[C@@H](CO)NC(=O)[C@@H](CC(C)C)NC(=O)[C@@H](CCCNC(=N)N)NC(=O)[C@H](NC(=O)[C@@H](CCCNC(=N)N)NC(=O)[C@H](NC(=O)[C@@H](CCCCN)NC(=O)[C@H](N)CCCCN)[C@H](C)CC)C(C)C)C(=O)NCCC(=O)O)C(C)C [M33-D] (I: H-[dK][dK][dI][dR][dV][dR][dL][dS][dA]KK[βAla]-OH / II: H-[dK][dK][dI][dR][dV][dR][dL][dS][dA]K / III: H-[dK][dK][dI][dR][dV][dR][dL][dS][dA] / IV: H-[dK][dK][dI][dR][dV][dR][dL][dS][dA]; amide I:10-IV:C, I:11-II:C, II:10-III:C; N-terminus assumed)",1.5 µM,3 µM,1.5 µM,0.7 µM,–,100%,≥ 24 h,–

# Reference: publication PMC3462775 (PLoS ONE, 2012)
